Assay results as given in PubChem BioAssay (NCI).
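Five concentrations, 48 hours, 96-well plates. GI50: concentration for 50% inhibition of growth. At the TGI there is no net growth.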

Experiments:
Assay in all cases: inhibition of tumour cell growth, NCI panel, 48 h
HL-60(TB) leukemia = test system: HL-60(TB) leukemia
OVCAR-8 ovarian = test system: OVCAR-8 ovarian
IGROV1 ovarian = test system: IGROV1 ovarian
SF-295 CNS = test system: SF-295 CNS
HCC-2998 colon = test system: HCC-2998 colon
NCI-H226 lung = test system: NCI-H226 lung
OVCAR-3 ovarian = test system: OVCAR-3 ovarian
SN12C renal = test system: SN12C renal
HT29 colon = test system: HT29 colon
PC-3 prostate = test system: PC-3 prostate

| Structure (SMILES) | TGI (HL-60(TB) leukemia) [µM] | TGI (OVCAR-8 ovarian) [µM] | TGI (IGROV1 ovarian) [µM] | TGI (SF-295 CNS) [µM] | TGI (HCC-2998 colon) [µM] | TGI (NCI-H226 lung) [µM] | TGI (OVCAR-3 ovarian) [µM] | TGI (SN12C renal) [µM] | TGI (HT29 colon) [µM] | GI50 (HL-60(TB) leukemia) [µM] | GI50 (OVCAR-8 ovarian) [µM] | GI50 (IGROV1 ovarian) [µM] | GI50 (SF-295 CNS) [µM] | GI50 (HCC-2998 colon) [µM] | GI50 (OVCAR-3 ovarian) [µM] | GI50 (SN12C renal) [µM] | GI50 (HT29 colon) [µM] | GI50 (NCI-H226 lung) [nM] | GI50 (PC-3 prostate) [µM] | TGI (PC-3 prostate) [µM] |
| --- | --- | --- | --- | --- | --- | --- | --- | --- | --- | --- | --- | --- | --- | --- | --- | --- | --- | --- | --- | --- |
| O=C(O)CCNCCCCNCCC(=O)O | > 100 | > 100 | > 100 | > 100 | > 100 | > 100 | > 100 | > 100 | > 100 |  |  |  |  |  |  |  |  |  |  |  |
| N.N.N.N.N.O=[N+]([O-])[O-].[Co+3].[O-][Cl+3]([O-])([O-])[O-] | > 100 | > 100 | > 100 | > 100 | > 100 |  | > 100 | > 100 | > 100 | > 100 | > 100 | > 100 | > 100 | > 100 | > 100 | > 100 | > 100 |  |  |  |
| COC(=O)CC(NC(=O)OCc1ccccc1)C(C(=O)OCc1ccccc1)C(C)(OC)OC (configuration not stated) | 90.9 | > 100 | > 100 | > 100 | > 100 | 97.5 | > 100 | > 100 | > 100 |  |  |  |  |  |  |  |  |  |  |  |
| CCOC(=O)N1CCc2cc(OC)c(OC)cc2/C1=C\c1ccc(OC)c(OC)c1 | 53.1 | 92.7 | > 100 | 61.2 | > 100 | 61.2 | 82.3 | > 100 | 40.8 |  |  |  |  |  |  |  |  |  |  |  |
| CCOC(=O)CCn1ncc(Cl)c(Cl)c1=O | 6.49 | 11.9 | 26 | 34.2 | 10.4 | 25.3 | 10.8 | 29.3 | 14.2 |  |  |  |  |  |  |  |  |  |  |  |
| CN(C)c1nc2ccccc2c2c1c1c(n2Cc2ccccc2)-c2ccccc2C1=O | > 100 | > 100 | > 100 | > 100 |  | > 100 | > 100 | > 100 | > 100 | 91.6 | > 100 | 27.2 | > 100 |  | > 100 | > 100 | 12.2 | > 100000 |  |  |
| CC1CCSC(N(C(=O)N(C)c2ccccc2)c2ccccc2)=N1 (configuration not stated) | > 100 | > 100 | > 100 | > 100 | > 100 | > 100 | > 100 | > 100 | > 100 |  |  |  |  |  |  |  |  |  |  |  |
| Cc1nc(Nc2cccnc2)sc1C(=O)/C=C/c1ccc(Cl)cc1 |  | > 100 | > 100 | 19.1 | 10.5 | 8.12 | 16.2 | 9.13 | 9.43 |  | 3.84 | 3.29 | 2.79 | 3.06 | 3.27 | 2.91 | 2.85 | 2750 | 3.27 | 12 |
| Cc1c(NC(=S)NC(=O)c2ccc([N+](=O)[O-])cc2)c(=O)n(-c2ccccc2)n1C | > 100 | > 100 | > 100 | > 100 | > 100 | > 100 | > 100 | > 100 | > 100 |  |  |  |  |  |  |  |  |  |  |  |
| COc1ccc(/C(Cl)=C/c2cc(OC)ccc2OC)cc1 | 81.8 | > 100 | > 100 | > 100 | > 100 | > 100 |  | > 100 | > 100 |  |  |  |  |  |  |  |  |  |  |  |
| NNC(=O)C(=O)N/N=C1\CCC(=O)CC1C(=O)CCC(=O)Nc1ccc(Cl)cc1 (configuration not stated) | > 100 | > 100 | > 100 | > 100 | > 100 | > 100 | > 100 | > 100 | > 100 |  |  |  |  |  |  |  |  |  |  |  |
| Cc1cc(N(CCC#N)CCC#N)ccc1N=Nc1ccc(Br)cc1 | > 100 | > 96.1 | > 57.3 | > 51 | > 79.3 | > 46.5 | > 87.2 | > 54.8 | > 100 |  |  |  |  |  |  |  |  |  |  |  |
| C1CC2CN(CCCN3CCOCC3)C(C1)O2 (configuration not stated) | > 100 | > 100 | > 100 | > 100 |  | > 100 | > 100 | > 100 | > 100 |  |  |  |  |  |  |  |  |  |  | > 100 |
| CC(C)CCCC(C)[C@H]1CCC2[C@@H]3CCC4Nc5c(cnn5-c5ccccc5)C[C@]4(C)C3CC[C@@]21C (some centres not stated) | > 100 | > 100 | > 100 | 7.46 | > 100 | > 100 | > 100 | > 100 | > 100 |  |  |  |  |  |  |  |  |  |  |  |
| Cc1ccc(S(=O)(=O)c2ccccc2[N+](=O)[O-])cc1 | > 100 | > 100 | > 100 | > 100 | > 100 | > 100 | > 100 |  | > 100 |  |  |  |  |  |  |  |  |  |  |  |
| COc1ccc(CCc2cc(OC)cc(OC)c2)cc1 | > 84.5 | > 100 | > 100 | > 100 | 51.2 | > 100 | > 65.9 | > 100 | 47.9 |  |  |  |  |  |  |  |  |  |  |  |
| CC(C)(C)C(=CS(=O)/N=C/c1ccccc1)C(C)(C)C (configuration not stated) |  | > 100 | 71.2 |  |  | > 100 | > 100 | 51.7 | > 100 |  |  |  |  |  |  |  |  |  |  |  |
| CC(C)(C)OC(=O)NCCCn1c2c(c3ccccc3c1=O)C(=O)c1ccccc1-2 | > 100 | 58.2 | > 100 | 44.6 |  | > 100 | 26.3 | > 100 |  | > 100 | 13.3 | > 100 | 16.8 |  | 8.73 | 24.8 |  | 63500 | 51.5 | > 100 |
| C[Si](C)(C)/C=C\CCO | > 100 | > 100 | > 100 | > 100 | > 100 |  | > 100 | > 100 | > 100 |  |  |  |  |  |  |  |  |  |  |  |
| COC(=O)C1=C(C(=O)OC)C2(C)C=CC1O2 (configuration not stated) |  | 31.7 | 37.5 |  | 29.8 | 39.9 | 2.86 | 31.3 | 28.5 |  |  |  |  |  |  |  |  |  |  | 37.6 |
| O=C(Nc1ccc(-c2nc(-c3cccc(OCCN4CCOCC4)c3)c(-c3ccnc(Br)c3)[nH]2)cc1)c1ccccc1 |  | > 100 | > 100 |  | > 100 | > 100 | > 100 | > 100 |  |  | 3.96 | 4.61 |  | 2.76 | 4.27 | 6.94 |  | 2940 | 2.36 | > 100 |
